Laboratory results as given in patent publication US20250376445A1, “COMPOUNDS AND METHODS FOR YAP/TEAD MODULATION AND INDICATIONS THEREFOR” (OPNA BIO SA, priority 2023, published 2025).

These compounds were tested on TEAD-dependent transcription (assay: TEAD-dependent transcription cell-based reporter assay (MSTO-211H+12XGTIIC luciferase)). Settings: Homo sapiens; MSTO-211H+12XGTIIC reporter cells, 24 hours compound incubation, luminescence normalized to viability; read-out: MSTO-211H GMean IC50 (uM) Cell Assay Reporter Cell Variant: TEAD.
Set-up: species or system human
Text: The human mesothelioma cell line MSTO-211H was stably transfected with a pGL4.21 plasmid containing a synthetic promoter with 12 copies of the GTIIC TEAD response element that drives the expression of a luciferase reporter gene^1 using Lipofectamine transfection reagent (Thermo Fisher). Transfected cells were selected using puromycin and single cell clones expressing this construct (referred to as MSTO-211H+12XGTIIC) were generated by limiting dilution. MSTO-211H cells was characterized by genetic alterations in key components of the Hippo pathway^2, resulting in up-regulation of YAP/TEAD-mediated transcription. […] To evaluate TEAD inhibitors, the MSTO-211H+12XGTIIC cell line was seeded in a 96-well plate in 50 μL of culture media at 1×10^4 cells per well and incubated at 37° C. overnight. Serial dilutions of compounds (in total volume of 50 μL of culture media) were added to the cells and incubated at 37° C. for 24 hours. Each plate included cells treated with DMSO as high controls and cells treated with 20 μM of the reference compound K-975 (a known TEAD inhibitor)^3 as low controls. Cell viability was assayed by the addition of 25 μL of CellTiter-Fluor reagent (Promega) followed by a 30-minute incubation at 37° C. and quantification of the fluorescence signal (Ex400/Em505). Subsequently, luciferase expression was assayed by the addition of 25 μL of ONE-Glo reagent (Promega) followed by a 10-minute incubation at room temperature and quantification of the luminescence signal. The luminescence signal was normalized to the fluorescence signal to correct for any loss in cell viability over the 24-hour compound incubation period. The percentage of inhibition of normalized luminescence signal, indicative of compound-mediated inhibition of TEAD-dependent transcription, at individual compound concentrations relative to high and low controls was calculated. The data were analyzed by using nonlinear regression to generate IC50 values for individual compounds.

Structure (SMILES)	IC50 [µM]
O=C(c1ccc(C(F)(F)F)cc1)c1cccc2c1CCN(C(=O)c1ncc(C(F)(F)F)[nH]1)C2 [O-0072, (5-(trifluoromethyl)-1H-imidazol-2-yl)(5-(4-(trifluoromethyl)benzoyl)-3,4-dihydroisoquinolin-2(1H)-yl)methanone]	0.001 to 10
C[C@@H](N)C(=O)N1CCc2cc(-c3ccc(C(F)(F)F)cc3)ccc2C1 [O-0186, (R)-2-amino-1-(6-(4-(trifluoromethyl)phenyl)-3,4-dihydroisoquinolin-2(1H)-yl)propan-1-one]	0.001 to 10
O=C(c1ccc(C(F)(F)F)cc1)c1cccc2c1CCN(C(=O)Cc1cocn1)C2 [O-0067, 2-(oxazol-4-yl)-1-(5-(4-(trifluoromethyl)benzoyl)-3,4-dihydroisoquinolin-2(1H)-yl)ethan-1-one]	0.001 to 10
C[C@H](NC(=O)OC(C)(C)C)C(=O)N1CCc2c(cccc2-c2ccc(C(F)(F)F)cc2)C1 [O-0195, tert-butyl (S)-(1-oxo-1-(5-(4-(trifluoromethyl)phenyl)-3,4-dihydroisoquinolin-2(1H)-yl)propan-2-yl)carbamate]	> 100
C[C@@H](NC(=O)c1cccc(N)n1)C(=O)N1CCc2c(cccc2-c2ccc(C(F)(F)F)cc2)C1 [O-0132, (R)-6-amino-N-(1-oxo-1-(5-(4-(trifluoromethyl)phenyl)-3,4-dihydroisoquinolin-2(1H)-yl)propan-2-yl)picolinamide]	0.001 to 10
O=C(Cc1cscn1)N1CCc2c(cccc2C(F)c2ccc(C(F)(F)F)cc2)C1 (stereo not drawn) [O-0056, 1-(5-(fluoro(4-(trifluoromethyl)phenyl)methyl)-3,4-dihydroisoquinolin-2(1H)-yl)-2-(thiazol-4-yl)ethan-1-one]	0.001 to 10
C=CC(=O)N1CCc2c(cccc2-c2ccc(C(F)(F)F)cc2)C1 [O-0116, 1-(5-(4-(trifluoromethyl)phenyl)-3,4-dihydroisoquinolin-2(1H)-yl)prop-2-en-1-one]	0.001 to 10
CS(=O)(=O)c1nc(C(=O)N2CCc3ccc(C(=O)c4ccc(C(F)(F)F)cc4)cc3C2)c[nH]1 [O-0064, (2-(methylsulfonyl)-1H-imidazol-4-yl)(7-(4-(trifluoromethyl)benzoyl)-3,4-dihydroisoquinolin-2(1H)-yl)methanone]	0.001 to 10
CS(=O)(=O)c1nccc(C(=O)N2CCc3ccc(C(=O)c4ccc(C(F)(F)F)cc4)cc3C2)n1 [O-0058, (2-(methylsulfonyl)pyrimidin-4-yl)(7-(4-(trifluoromethyl)benzoyl)-3,4-dihydroisoquinolin-2(1H)-yl)methanone]	0.001 to 10
